# Measured values from EP0162568A2, “Paulomycin analogues and their preparation” (THE UPJOHN COMPANY, priority 1984, dated 1985).
# Read-outs that look alike come from different tables or passages of the source.
# What was measured:
# [1] = system: Gram-positive organisms; experiment: antibacterial activity, general statement; type: cell-based; details: including organisms resistant to penicillins, macrolides and lincosaminides
# [2] = solubility (characterization); type: physicochemical
# [3] = in water; background statement; cited from earlier work
# [4] = free acid form, in phosphate buffers at physiological pH (7.0-7.5)
# [5] = in chloroform, methylene chloride
# [6] = in ether and saturated hydrocarbon solvents
# [7] = in lower alcohols, ketones, ethyl acetate
Molecule,activity against Gram-positive organisms [1],"Solubility [2, 4]","Solubility ([2]; free acid form, in water)","Solubility [2, 5]","Solubility [2, 6]","Solubility [2, 7]","Solubility ([2]; salts, in water)",Solubility [3]
CC=C(NC(=S)SCC(NC(C)=O)C(=O)O)C(=O)OC1C(COC(C)=O)OC(C2(O)CC(=O)C(O)=C(C(N)=O)C2=O)C(O)C1OC1CC(OC)C(O)(C(C)OC(=O)C(C)CC)C(C)O1 (stereo not drawn) [Antibiotic 273a2α],active,soluble,insoluble,less soluble,insoluble,Soluble,soluble,
CC=C(NC(=S)SCC(NC(C)=O)C(=O)O)C(=O)OC1C(COC(C)=O)OC(C2(O)CC(=O)C(O)=C(C(N)=O)C2=O)C(O)C1OC1CC(OC)C(O)(C(C)OC(=O)C(C)C)C(C)O1 (stereo not drawn) [Antibiotic 273a2β],active,soluble,insoluble,less soluble,insoluble,Soluble,soluble,
paulomycin,,,,,,,,relatively insoluble
